# Tested on: not listed separately
# Assay: Cytotoxicity against human fibroblast cells assessed as viable cells at 10 uM by trypan blue staining based assay
# Assay type: cell-based
# Conditions: read-out: Activity
row,Compound,viability at 10 µM [%]
1,COc1ccc(C2NC(C(=O)O)Cc3c2[nH]c2ccccc32)cc1OC (centres undefined),92
2,CCCC(=O)N(C)C1=Nc2ccc(Cl)cc2C(c2ccccc2)=[N+]([O-])C1,100
3,CCC1=C(CC2NCCc3ccccc32)CC2c3cc(OC)c(OC)cc3CCN2C1 (centres undefined),46
4,CCN(CC)CCC(=O)NC1c2ccc(Cl)cc2Oc2c(C)cccc21 (centres undefined),100
5,Cc1nn(C(=O)Cc2ccccc2)c2c1C(c1ccc(O)cc1)SC(=N)N2 (centres undefined),100
6,CCC(C)N1CN(c2ccccc2)C2(CCN(CC3COc4ccccc4O3)CC2)C1=O (centres undefined),100
7,CN/N=C(\C)C(CN1CCCCC1)C(C1=C(O)c2ccccc2OC1)c1ccccc1 (centres undefined),100
8,O=C1CN(CCN2CC(=O)N(Cc3ccccc3)C(=O)C2)CC(=O)N1Cc1ccccc1,100
9,CC1(CN2CCCC2)CCC(NC(=O)C(c2ccccc2)c2ccccc2)C(C)(C)O1 (centres undefined),88
10,CCCNCCC(O)c1cc(C(F)(F)F)nc2c(C(F)(F)F)cccc12 (centres undefined),67
11,CCN(Cc1ccccc1)C(=O)C1CCN(Cc2c[nH]c3ccccc23)CC1,56
12,ClCCNCc1cccc(Nc2ccnc3cc(Cl)ccc23)c1,96
13,N=c1[nH]c(=O)n(CCCCOc2ccccc2)cc1-c1ccc(Cl)c(Cl)c1,100
14,CC1CN(CCOC(=O)C(c2ccccc2)C2C=CCCC2)C(C)(C)C1 (centres undefined),84
15,CN1CN(c2ccccc2)C2(CCN(CCc3cc4ccccc4o3)CC2)C1=O,92
16,CC1(C)CCN(CCOC(=O)C(c2ccccc2)C2C=CCCC2)C1 (centres undefined),100
17,O=C1NCN(c2ccccc2)C12CCN(CCCS(=O)(=O)c1ccccc1)CC2,100

# Tested on: not listed separately
# Assay: Cytotoxicity against human fibroblast cells assessed as viable cells at 50 uM by trypan blue staining based assay
# Assay type: cell-based
# Conditions: read-out: Activity
row,Compound,viability at 50 µM [%]
1,COc1ccc(C2NC(C(=O)O)Cc3c2[nH]c2ccccc32)cc1OC (centres undefined),100
2,CCCC(=O)N(C)C1=Nc2ccc(Cl)cc2C(c2ccccc2)=[N+]([O-])C1,68
3,CCC1=C(CC2NCCc3ccccc32)CC2c3cc(OC)c(OC)cc3CCN2C1 (centres undefined),16
4,CCN(CC)CCC(=O)NC1c2ccc(Cl)cc2Oc2c(C)cccc21 (centres undefined),13
5,Cc1nn(C(=O)Cc2ccccc2)c2c1C(c1ccc(O)cc1)SC(=N)N2 (centres undefined),63
6,CCC(C)N1CN(c2ccccc2)C2(CCN(CC3COc4ccccc4O3)CC2)C1=O (centres undefined),70
7,CN/N=C(\C)C(CN1CCCCC1)C(C1=C(O)c2ccccc2OC1)c1ccccc1 (centres undefined),75
8,O=C1CN(CCN2CC(=O)N(Cc3ccccc3)C(=O)C2)CC(=O)N1Cc1ccccc1,82
9,CC1(CN2CCCC2)CCC(NC(=O)C(c2ccccc2)c2ccccc2)C(C)(C)O1 (centres undefined),54
10,CCCNCCC(O)c1cc(C(F)(F)F)nc2c(C(F)(F)F)cccc12 (centres undefined),19
11,CCN(Cc1ccccc1)C(=O)C1CCN(Cc2c[nH]c3ccccc23)CC1,21
12,ClCCNCc1cccc(Nc2ccnc3cc(Cl)ccc23)c1,48
13,N=c1[nH]c(=O)n(CCCCOc2ccccc2)cc1-c1ccc(Cl)c(Cl)c1,56
14,CC1CN(CCOC(=O)C(c2ccccc2)C2C=CCCC2)C(C)(C)C1 (centres undefined),36
15,CN1CN(c2ccccc2)C2(CCN(CCc3cc4ccccc4o3)CC2)C1=O,21
16,CC1(C)CCN(CCOC(=O)C(c2ccccc2)C2C=CCCC2)C1 (centres undefined),59
17,O=C1NCN(c2ccccc2)C12CCN(CCCS(=O)(=O)c1ccccc1)CC2,100

# Tested on: not listed separately
# Assay: Inhibition of P-gp in human MCF7/D70 cells assessed as decrease in doxorubicin IC50 at 50 uM after 72 hrs by MTT assay (Rvb doxorubicin alone IC50 = 0.906 +/- 0.02 uM)
# Assay type: cell-based
# Conditions: MCF7/D70, 72 h
row,Compound,IC50 [µM]
1,COc1ccc(C2NC(C(=O)O)Cc3c2[nH]c2ccccc32)cc1OC (centres undefined),1.18
2,CCCC(=O)N(C)C1=Nc2ccc(Cl)cc2C(c2ccccc2)=[N+]([O-])C1,0.49
3,Cc1nn(C(=O)Cc2ccccc2)c2c1C(c1ccc(O)cc1)SC(=N)N2 (centres undefined),2.07
4,CN/N=C(\C)C(CN1CCCCC1)C(C1=C(O)c2ccccc2OC1)c1ccccc1 (centres undefined),1.08
5,O=C1CN(CCN2CC(=O)N(Cc3ccccc3)C(=O)C2)CC(=O)N1Cc1ccccc1,0.24
6,CC1(CN2CCCC2)CCC(NC(=O)C(c2ccccc2)c2ccccc2)C(C)(C)O1 (centres undefined),0.14
7,CCN(Cc1ccccc1)C(=O)C1CCN(Cc2c[nH]c3ccccc23)CC1,0.62
8,N=c1[nH]c(=O)n(CCCCOc2ccccc2)cc1-c1ccc(Cl)c(Cl)c1,0.24
9,CC1(C)CCN(CCOC(=O)C(c2ccccc2)C2C=CCCC2)C1 (centres undefined),0.55
10,O=C1NCN(c2ccccc2)C12CCN(CCCS(=O)(=O)c1ccccc1)CC2,0.24

# Tested on: MCF7
# Assay: Cytotoxicity against human MCF7 cells assessed as viable cells at 50 uM by trypan blue staining based assay
# Assay type: functional
# Conditions: read-out: Activity
row,Compound,viability at 50 µM [%]
1,COc1ccc(C2NC(C(=O)O)Cc3c2[nH]c2ccccc32)cc1OC (centres undefined),92
2,CCCC(=O)N(C)C1=Nc2ccc(Cl)cc2C(c2ccccc2)=[N+]([O-])C1,70
3,CCC1=C(CC2NCCc3ccccc32)CC2c3cc(OC)c(OC)cc3CCN2C1 (centres undefined),5
4,CCN(CC)CCC(=O)NC1c2ccc(Cl)cc2Oc2c(C)cccc21 (centres undefined),9
5,Cc1nn(C(=O)Cc2ccccc2)c2c1C(c1ccc(O)cc1)SC(=N)N2 (centres undefined),55
6,CCC(C)N1CN(c2ccccc2)C2(CCN(CC3COc4ccccc4O3)CC2)C1=O (centres undefined),11
7,CN/N=C(\C)C(CN1CCCCC1)C(C1=C(O)c2ccccc2OC1)c1ccccc1 (centres undefined),97
8,O=C1CN(CCN2CC(=O)N(Cc3ccccc3)C(=O)C2)CC(=O)N1Cc1ccccc1,69
9,CC1(CN2CCCC2)CCC(NC(=O)C(c2ccccc2)c2ccccc2)C(C)(C)O1 (centres undefined),51
10,CCCNCCC(O)c1cc(C(F)(F)F)nc2c(C(F)(F)F)cccc12 (centres undefined),6
11,CCN(Cc1ccccc1)C(=O)C1CCN(Cc2c[nH]c3ccccc23)CC1,13
12,ClCCNCc1cccc(Nc2ccnc3cc(Cl)ccc23)c1,15
13,N=c1[nH]c(=O)n(CCCCOc2ccccc2)cc1-c1ccc(Cl)c(Cl)c1,58
14,CC1CN(CCOC(=O)C(c2ccccc2)C2C=CCCC2)C(C)(C)C1 (centres undefined),61
15,CN1CN(c2ccccc2)C2(CCN(CCc3cc4ccccc4o3)CC2)C1=O,14
16,CC1(C)CCN(CCOC(=O)C(c2ccccc2)C2C=CCCC2)C1 (centres undefined),53
17,O=C1NCN(c2ccccc2)C12CCN(CCCS(=O)(=O)c1ccccc1)CC2,80

# Tested on: not listed separately
# Assay: Inhibition of P-gp in human MCF7/D70 cells assessed as decrease in doxorubicin IC50 at 1 uM after 72 hrs by MTT assay (Rvb doxorubicin alone IC50 = 0.906 +/- 0.02 uM)
# Assay type: cell-based
# Conditions: MCF7/D70, 72 h
row,Compound,IC50 [µM]
1,CCCC(=O)N(C)C1=Nc2ccc(Cl)cc2C(c2ccccc2)=[N+]([O-])C1,0.39

# Tested on: MCF7
# Assay: Cytotoxicity against human MCF7 cells assessed as viable cells at 10 uM by trypan blue staining based assay
# Assay type: functional
# Conditions: read-out: Activity
row,Compound,viability at 10 µM [%]
1,COc1ccc(C2NC(C(=O)O)Cc3c2[nH]c2ccccc32)cc1OC (centres undefined),89
2,CCCC(=O)N(C)C1=Nc2ccc(Cl)cc2C(c2ccccc2)=[N+]([O-])C1,95
3,CCC1=C(CC2NCCc3ccccc32)CC2c3cc(OC)c(OC)cc3CCN2C1 (centres undefined),31
4,CCN(CC)CCC(=O)NC1c2ccc(Cl)cc2Oc2c(C)cccc21 (centres undefined),100
5,Cc1nn(C(=O)Cc2ccccc2)c2c1C(c1ccc(O)cc1)SC(=N)N2 (centres undefined),96
6,CCC(C)N1CN(c2ccccc2)C2(CCN(CC3COc4ccccc4O3)CC2)C1=O (centres undefined),93
7,CN/N=C(\C)C(CN1CCCCC1)C(C1=C(O)c2ccccc2OC1)c1ccccc1 (centres undefined),100
8,O=C1CN(CCN2CC(=O)N(Cc3ccccc3)C(=O)C2)CC(=O)N1Cc1ccccc1,76
9,CC1(CN2CCCC2)CCC(NC(=O)C(c2ccccc2)c2ccccc2)C(C)(C)O1 (centres undefined),100
10,CCCNCCC(O)c1cc(C(F)(F)F)nc2c(C(F)(F)F)cccc12 (centres undefined),9
11,CCN(Cc1ccccc1)C(=O)C1CCN(Cc2c[nH]c3ccccc23)CC1,48
12,ClCCNCc1cccc(Nc2ccnc3cc(Cl)ccc23)c1,86
13,N=c1[nH]c(=O)n(CCCCOc2ccccc2)cc1-c1ccc(Cl)c(Cl)c1,77
14,CC1CN(CCOC(=O)C(c2ccccc2)C2C=CCCC2)C(C)(C)C1 (centres undefined),93
15,CN1CN(c2ccccc2)C2(CCN(CCc3cc4ccccc4o3)CC2)C1=O,31
16,CC1(C)CCN(CCOC(=O)C(c2ccccc2)C2C=CCCC2)C1 (centres undefined),98
17,O=C1NCN(c2ccccc2)C12CCN(CCCS(=O)(=O)c1ccccc1)CC2,77

# Tested on: not listed separately
# Assay: Inhibition of P-gp in human MCF7/D70 cells assessed as decrease in doxorubicin IC50 at 10 uM after 72 hrs by MTT assay (Rvb doxorubicin alone IC50 = 0.906 +/- 0.02 uM)
# Assay type: cell-based
# Conditions: MCF7/D70, 72 h
row,Compound,IC50 [µM]
1,CCCC(=O)N(C)C1=Nc2ccc(Cl)cc2C(c2ccccc2)=[N+]([O-])C1,0.38
2,O=C1CN(CCN2CC(=O)N(Cc3ccccc3)C(=O)C2)CC(=O)N1Cc1ccccc1,0.85
3,CC1(CN2CCCC2)CCC(NC(=O)C(c2ccccc2)c2ccccc2)C(C)(C)O1 (centres undefined),1.73
4,N=c1[nH]c(=O)n(CCCCOc2ccccc2)cc1-c1ccc(Cl)c(Cl)c1,0.57
5,O=C1NCN(c2ccccc2)C12CCN(CCCS(=O)(=O)c1ccccc1)CC2,1.14

# — ChEMBL document CHEMBL3769369, “Ligand-based modeling of diverse aryalkylamines yields new potent P-glycoprotein inhibitors” (Eur J Med Chem, 2016)
